Where “and” joins values, the source holds several entries; their conditions need not be identical. Equal entries are not always repeated. Entries after “also recorded” stand apart in the source; their conditions may differ.
Tests used:
[1] = tested on: erythrocyte count, WBC count, PLT and Hb; test: Haematological indicators (peripheral blood cells) after intravenous BBR; format: in vivo, SD rats; settings: rats, i.v. 2.5 mg/kg, 5, 30 and 120 min, vs control group, n = 8
Method: After 48 SD rats were fed adaptively for a week, they were randomly divided into the control group and i.v. group (24 rats per group). Then they were further divided into 5, 30, and 120 min subgroups (n = 8). The SD rats in the i.v. group were intravenously administrated with 2.5 mg/kg BBR, while the control group was intravenously administrated with 1 mL 0.9% physiological saline solution. The blood samples were collected from the retroorbital sinus to K2EDTA-coated tubes, and used for the evaluation of haematological indicators including erythrocyte count, white blood cell (WBC) count, platelet count (PLT) and Hb.

30% erythrocytes = test: Berberine loading of erythrocytes (loading efficiency); format: in vitro ADME, rats; settings: 37 °C, 2 h, n = 3
Method: The whole blood was collected from rats by orbital plexus vein and transferred into a blood-collection tube containing ethylene diamine tetraacetic acid (EDTA) as an anticoagulant. The whole blood was centrifuged at 3000 rpm for 10 min. The plasma and the buffy coat in the supernatant were removed by aspiration, and erythrocytes were washed three times in cold phosphate buffer saline (PBS) and centrifuged for 10 min at 3000 rpm, and then resuspended in an appropriate volume of PBS.
In order to determine the effect of BBR concentration on loading efficiency, different concentrations (1.000, 0.100, 0.010 and 0.001 M) of BBR were comparatively used at 37 °C for fixed incubation time (2 h) to obtain the more suitable concentration for the loading process. The hematocrite of washed erythrocytes was adjusted by PBS to 30%. In the 5-mL Eppendorf tubes, 1 mL of 30% erythrocytes was added to 1 mL PBS containing the known concentration of the agent. The final concentrations of BBR in the reaction system were […] (185, 18.5, 1.85 and 0.185 μg/mL), respectively. The mixtures were gently mixed to avoid hemolysis and incubated for 2 h at 37 °C. After incubation, the erythrocytes suspension was centrifuged for 10 min at 3000 rpm and the supernatant was collected.
In order to verify the binding system, the supernatant was analyzed by quantifying the amount of unbound BBR through HPLC. In order to offset this effect, an internal standard method was employed in this study and piperine was chosen as the internal standard substance (200 μg/mL). Different known concentrations (500.00, 100.00, 20.00, 4.00, 0.80, 0.16 μg/mL) of BBR and piperine were used to create the standard curve. The peak area of each concentration with the concentration of piperine was measured 3 times. And then, the calibration curves were prepared using linear regression of known drug concentration versus peak area. The unknown concentration of BBR was analyzed by the regressed equation: y = a(x) + b. While y is the peak area ratio of BBR and piperine, a is the slope, b is the y-intercept, and x is the concentration of BBR.
After incubation, acetonitrile was added to the different incubated solutions for protein precipitation. The mixtures were centrifuged at 8000 rpm for 10 min. The supernatants were collected and dried. The eluates were concentrated and re-dissolved for analysis. The loading efficiency was calculated according to the following formula: Loading efficiency (%) = [(Moriginal drug−Mdrug after incubation)/Moriginal drug] ×100%

[2] = BBR 0.185 μg/mL in BBR-erythrocyte system
[3] = BBR 1.850 μg/mL in BBR-erythrocyte system
[4] = BBR 18.500 μg/mL in BBR-erythrocyte system

SMILES: COc1ccc2cc3[n+](cc2c1OC)CCc1cc2c(cc1-3)OCO2 [BBR, Berberine]
- Hb content [1]: significantly decreased; also recorded: significantly reduced
- erythrocytes count [1]: significantly decreased; also recorded: significantly reduced
- platelet count [1]: did not fluctuate obviously; also recorded: no significant effects
- white blood count [1]: did not fluctuate obviously; also recorded: no significant effects
- Extracellular BBR concentration after incubation (30% erythrocytes; [2]): 0 ± 0.051 µg/mL
- Loading percentage (30% erythrocytes; [2]): 100% and 100 ± 19.84%
- Extracellular BBR concentration after incubation (30% erythrocytes; [3]): 0.115 ± 0.072 µg/mL
- Loading percentage (30% erythrocytes; [3]): 95.528 ± 2.622%
- Extracellular BBR concentration after incubation (30% erythrocytes; [4]): 2.288 ± 0.105 µg/mL
- Loading percentage (30% erythrocytes; [4]): 88.772 ± 0.410%

Reference: article PMC8920379, “The discovery of berberine erythrocyte-hemoglobin self-assembly delivery system: a neglected carrier underlying its pharmacokinetics” (Drug Delivery, 2022)
